Test results published in BigSolDB 2.1.

CCOc1ccc(C=O)cc1O
solubility (mole fraction)
Details | 283.15 K | 288.15 K | 293.15 K | 298.15 K | 303.15 K | 308.15 K | 313.15 K | 318.15 K | 323.15 K
in THF | 0.0523 | 0.0624 | 0.071 | 0.0842 | 0.094 | 0.108 | 0.123 | 0.138 | 0.156
in acetone | 0.0425 | 0.0467 | 0.0515 | 0.057 | 0.0652 | 0.0718 | 0.0819 | 0.092 | 0.114
in acetonitrile | 0.0105 | 0.0133 | 0.015 | 0.0191 | 0.0228 | 0.0285 | 0.0353 | 0.0406 | 0.0551
in ethanol | 0.0066 | 0.0078 | 0.0101 | 0.012 | 0.0141 | 0.0179 | 0.0224 | 0.0276 | 0.0345
in ethyl acetate | 0.0166 | 0.0194 | 0.0212 | 0.0259 | 0.0288 | 0.0361 | 0.0416 | 0.0511 | 0.0606
in ethyl formate | 0.0135 | 0.0172 | 0.0196 | 0.0236 | 0.0278 | 0.0341 | 0.0415 | 0.0488 | 0.0605
in isopropanol | 0.0035 | 0.005 | 0.0063 | 0.0082 | 0.01 | 0.0129 | 0.0168 | 0.0216 | 0.0277
in isopropyl acetate | 0.013 | 0.0156 | 0.0187 | 0.0202 | 0.0227 | 0.0274 | 0.0325 | 0.0387 | 0.0457
in methanol | 0.0072 | 0.0091 | 0.0119 | 0.0159 | 0.0206 | 0.0268 | 0.0362 | 0.0482 | 0.0635
in methyl acetate | 0.0166 | 0.0205 | 0.0263 | 0.0301 | 0.0331 | 0.0409 | 0.048 | 0.0557 | 0.0678
in n-propanol | 0.0048 | 0.0065 | 0.0077 | 0.0098 | 0.0118 | 0.0149 | 0.0194 | 0.0246 | 0.0312
in toluene | 0.0032 | 0.0037 | 0.0042 | 0.0049 | 0.0057 | 0.0068 | 0.0077 | 0.0092 | 0.011
